Source: patent US20060223792A1, “Phenyl and pyridyl LTA4H modulators” (priority 2005, published 2006)

target: T1, recombinant human LTA4 hydrolase (rhLTA4H) (Homo sapiens, UniProt P09960); experiment: Recombinant human LTA4 hydrolase assay for LTA4 hydrolase inhibitor activity; assay type: biochemical; settings: recombinant human LTA4H, LTB4 quantified by enzyme-linked immunoassay; average of one to three determinations; read-out: IC50
T1 construct: made in house; host or cells: Spodoptera frugiperda (Sf-9) cells, baculovirus (pFastBac1)
T1 sequence (P09960 1-611): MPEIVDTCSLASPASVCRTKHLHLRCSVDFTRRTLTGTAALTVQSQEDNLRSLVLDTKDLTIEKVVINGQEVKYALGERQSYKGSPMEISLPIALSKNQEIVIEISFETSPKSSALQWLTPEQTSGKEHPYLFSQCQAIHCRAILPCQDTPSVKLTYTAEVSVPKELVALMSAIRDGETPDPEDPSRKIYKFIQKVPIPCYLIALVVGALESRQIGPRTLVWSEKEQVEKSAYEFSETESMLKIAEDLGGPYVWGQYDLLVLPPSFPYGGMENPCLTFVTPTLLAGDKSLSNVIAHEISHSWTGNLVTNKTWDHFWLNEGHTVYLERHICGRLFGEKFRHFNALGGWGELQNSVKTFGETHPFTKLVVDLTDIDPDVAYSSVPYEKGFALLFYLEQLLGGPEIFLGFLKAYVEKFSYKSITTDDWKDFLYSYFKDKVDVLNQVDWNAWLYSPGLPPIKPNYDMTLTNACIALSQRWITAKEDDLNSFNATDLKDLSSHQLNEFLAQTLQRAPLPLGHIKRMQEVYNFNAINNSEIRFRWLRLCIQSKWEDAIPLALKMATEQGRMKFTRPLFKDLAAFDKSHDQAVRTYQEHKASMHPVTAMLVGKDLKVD
Procedure: Recombinant Human LTA4 Hydrolase Assay for LTA4 Hydrolase Inhibitor Activity
Compounds of the present invention were tested for LTA4 hydrolase inhibitor activity against recombinant human LTA4 hydrolase (rhLTA4H). Vectors were prepared and used to express rhLTA4H essentially as follows: LTA4 hydrolase encoding DNA was amplified by polymerase chain reaction (PCR) using a human placental cDNA library as a template. Oligonucleotide primers for the PCR reaction were based on the 5′-end, and the complement of the 3′-end, of the published nucleotide sequence for the coding region of the human LTA4 hydrolase gene (C. D. Funk et al., Proc. Natl. Acad. Sci. USA 1987, 84:6677-6681). The amplified […] DNA fragment encoding LTA4 hydrolase was isolated and cloned into the pFastBac1 vector (Invitrogen). Recombinant baculovirus was generated as described by the manufacturer, and used to infect Spodoptera frugiperda (Sf-9) cells. Recombinant LTA4 hydrolase enzyme was purified from the infected Sf-9 cells essentially as described by J. K. Gierse et al. (Protein Expr. Purif. 1993, 4(5):358-366). The purified enzyme solution was adjusted to contain 0.29 mg/mL LTA4 hydrolase, 50 mM Tris (pH 8.0),150 mM NaCl, 5 mM dithiothreitol, 50% glycerol, and EDTA-free Complete protease inhibitor cocktail (Roche). The specific activity of the enzyme was about 3.8 μmol/min/mg.
LTA4 substrate was prepared from the methyl ester of LTA4 (Cayman Chemical) by treatment with 67 equiv. of NaOH under nitrogen at rt for 40 min. The LTA4 substrate in its free acid form was kept frozen at −80° C. until needed. Each compound was diluted to different concentrations in assay buffer (0.1 M potassium phosphate (pH 7.4), 5 mg/mL fatty acid free BSA) containing 10% DMSO. A 25-μL aliquot of each compound dilution was incubated for 10 min at rt with an equal volume of assay buffer containing 36 ng of recombinant human LTA4H. The solution was then adjusted to 200 μL with assay buffer. LTA4 (free acid) was thawed and diluted in assay buffer to a concentration of 357 ng/mL, and 25 μL (9 ng) of LTA4 substrate was added to the reaction mixture (total volume=225 μL) at time zero. Each reaction was carried out at rt for 10 min. The reaction was stopped by diluting 10 μL of the reaction mixture with 200 μL of assay buffer. LTB4 was quantifiedin the diluted sample by a commercially available enzyme-linked immunoassay (Cayman Chemical Co.), as recommended by the manufacturer. Positive controls, under essentially identical conditions but without addition of an inhibitor compound, and negative controls, containing all assay components except enzyme, were routinely run in each experiment. IC50 values were determined by fitting the activity data at different compound concentrations to a 4-parameter equation using the Grafit program (Erithacus software).
The IC50 values presented in the table below should be expected to fall within the typical three-fold variability of assays of this type. The values presented here are, in general, an average of one to three determinations.

Compound | IC50
O=C(Nc1ccccc1)Oc1ccc(OCCN2CCC(O)(c3ccc(Cl)c(C(F)(F)F)c3)CC2)cc1 [Example 54, Phenyl-carbamic acid 4-{2-[4-(4-chloro-3-trifluoromethyl-phenyl)-4-hydroxy-piperidin-1-yl]-ethoxy}-phenyl ester] | 7 nM
O=C(Nc1ccccc1)Oc1ccc(OCCN2CCCCCC2)cc1 [Example 55, Phenyl-carbamic acid 4-(2-azepan-1-yl-ethoxy)-phenyl ester] | 0.5 nM
O=C(Nc1ccccc1)Oc1ccc(OCCN2CCC(O)(c3ccc(Br)cc3)CC2)cc1 [Example 56, Phenyl-carbamic acid 4-{2-[4-(4-bromo-phenyl)-4-hydroxy-piperidin-1-yl]-ethoxy}-phenyl ester] | 3 nM
O=C(Nc1ccccc1)Oc1ccc(OCCN2CCC(O)(c3ccc(Cl)cc3)CC2)cc1 [Example 57, Phenyl-carbamic acid 4-{2-[4-(4-chloro-phenyl)-4-hydroxy-piperidin-1-yl]-ethoxy}-phenyl ester] | 0.3 nM
O=C(Nc1ccccc1)Oc1ccc(CCN2CCC(O)CC2)cc1 [Example 58, Phenyl-carbamic acid 4-[2-(4-hydroxy-piperidin-1-yl)-ethyl]-phenyl ester] | 2 nM
CCN(CCc1ccc(OC(=O)Nc2ccccc2)cc1)C1CCCCC1 [Example 59, Phenyl-carbamic acid 4-[2-(cyclohexyl-ethyl-amino)-ethyl]-phenyl ester] | 0.6 nM
O=C(Nc1ccccc1)Oc1ccc(CCN2CCCC2)cc1 [Example 60, Phenyl-carbamic acid 4-(2-pyrrolidin-1-yl-ethyl)-phenyl ester] | 4 nM
O=C(Nc1ccccc1)Oc1ccc(CCN2CCCCCC2)cc1 [Example 61, Phenyl-carbamic acid 4-(2-azepan-1-yl-ethyl)-phenyl ester] | 2 nM
CCCN(CCc1ccc(OC(=O)Nc2ccccc2)cc1)CC1CC1 [Example 62, Phenyl-carbamic acid 4-[2-(cyclopropylmethyl-propyl-amino)-ethyl]-phenyl ester] | 4 nM
CCCCN(CCCC)CCc1ccc(OC(=O)Nc2ccccc2)cc1 [Example 63, Phenyl-carbamic acid 4-(2-dibutylamino-ethyl)-phenyl ester] | 0.6 nM
O=C(Nc1cccs1)Oc1ccc(OCCN2CCCCC2)cc1 [Example 65, Thiophen-2-yl-carbamic acid 4-(2-piperidin-1-yl-ethoxy)-phenyl ester] | 7 nM
CCOC(=O)C1CCCCN1C1CCN(CCc2ccc(OCCc3ccccc3)cc2)CC1 (stereo not drawn) [Example 66, 1′-[2-(4-Phenethyloxy-phenyl)-ethyl]-[1,4′]bipiperidinyl-2-carboxylic acid ethyl ester] | 88 nM
O=C(Oc1ccc(OCCN2CCCCC2)cc1)c1c[nH]c2ccccc12 [Example 68, 1H-Indole-3-carboxylic acid 4-(2-piperidin-1-yl-ethoxy)-phenyl ester] | 86 nM
Fc1ccccc1CCOc1ccc(OCCN2CCCCC2)cc1 [Example 70, 1-(2-{4-[2-(2-Fluoro-phenyl)-ethoxy]-phenoxy}-ethyl)-piperidine] | 100 nM
CCN(CCc1ccc(OCC(=O)c2ccccc2)cc1)C1CCCCC1 [Example 72, 2-{4-[2-(Cyclohexyl-ethyl-amino)-ethyl]-phenoxy}-1-phenyl-ethanone] | 10 nM
CCN(CCc1ccc(OCC(O)c2ccccc2)cc1)C1CCCCC1 (stereo not drawn) [Example 73, 2-{4-[2-(Cyclohexyl-ethyl-amino)-ethyl]-phenoxy}-1-phenyl-ethanol] | 10 nM
COC(=O)C1CCN(CCc2ccc(OCC(O)c3ccccc3)cc2)CC1 (stereo not drawn) [Example 76, 1-{2-[4-(2—hydroxy-2-phenyl-ethoxy)-phenyl]-ethyl}-piperidine-4-carboxylic acid methyl ester] | 3 nM
COC(=O)C1CCN(CCc2ccc(OCCc3ccccc3)cc2)CC1 [Example 77, 1-[2-(4-Phenethyloxy-phenyl)-ethyl]-piperidine-4-carboxylic acid methyl ester] | 6 nM
O=C1CN(CCc2ccc(OCCc3ccccc3)cc2)CCN1 [Example 83, 4-[2-(4-Phenethyloxy-phenyl)-ethyl]-piperazin-2-one] | 100 nM
CC(=O)N1CCC(N(CCC(=O)O)CCc2ccc(OCCc3ccccc3)cc2)CC1 [Example 91, 3-{(1-Acetyl-piperidin-4-yl)-[2-(4-phenethyloxy-phenyl)-ethyl]-amino}-propionic acid] | 0.7 nM
O=C(O)C1CCN(CCc2ccc(OCC(O)c3ccccc3)cc2)CC1 (stereo not drawn) [Example 92] | 81 nM

Results, then the molecule that gave them:

IC50 | Compound
5 nM | OC(COc1ccc(OCCN2CCCCC2)cc1)c1ccccc1 (stereo not drawn) [Example 71, 1-Phenyl-2-[4-(2-piperidin-1-yl-ethoxy)-phenoxy]-ethanol]
50 nM | Oc1ccc(CCOc2ccc(OCCN3CCCCC3)cc2)cc1 [Example 74, 4-{2-[4-(2-Piperidin-1-yl-ethoxy)-phenoxy]-ethyl}-phenol]
42 nM | COC(=O)C1CCN(CCc2ccc(OCC(=O)c3ccccc3)cc2)CC1 [Example 75, 1-{2-[4-(2-Oxo-2-phenyl-ethoxy)-phenyl]-ethyl}-piperidine-4-carboxylic acid methyl ester]
6 nM | NC(=O)C1CCN(CCc2ccc(OCC(O)c3ccccc3)cc2)CC1 (stereo not drawn) [Example 78, 1-{2-[4-(2-Hydroxy-2-phenyl-ethoxy)-phenyl]-ethyl}-piperidine-4-carboxylic acid amide]
11 nM | O=C1CCCCN1C1CCN(CCc2ccc(OCCc3ccccc3)cc2)CC1 [Example 80, 1′-[2-(4-Phenethyloxy-phenyl)-ethyl]-[1,4′]bipiperidinyl-2-one]
6 nM | O=C1CCCN1C1CCN(CCOc2ccc(OCCc3ccccc3)cc2)CC1 [Example 82, 1-{1-[2-(4-Phenethyloxy-phenoxy)-ethyl]-piperidin-4-yl}-pyrrolidin-2-one]
10 nM | CCOC(=O)CCNCCc1ccc(OCCc2ccccc2)cc1 [Example 84, 3-[2-(4-Phenethyloxy-phenyl)-ethylamino]-propionic acid ethyl ester]
43 nM | CCOC(=O)CCN(C)CCc1ccc(OCCc2ccccc2)cc1 [Example 85, 3-{Methyl-[2-(4-phenethyloxy-phenyl)-ethyl]-amino}-propionic acid ethyl ester]
17 nM | O=C(O)C1CCN(CCOc2ccc(OCCc3ccccc3)cc2)CC1 [Example 86, 1-[2-(4-Phenethyloxy-phenoxy)-ethyl]-piperidine-4-carboxylic acid]
5 nM | CCOC(=O)CCN(CCc1ccc(OCCc2ccccc2)cc1)C1CCCCC1 [Example 87, 3-{Cyclohexyl-[2-(4-phenethyloxy-phenyl)-ethyl]-amino}-propionic acid ethyl ester]
4 nM | CN(CCC(=O)O)CCc1ccc(OCCc2ccccc2)cc1 [Example 88, 3-{Methyl-[2-(4-phenethyloxy-phenyl)-ethyl]-amino}-propionic acid]
21 nM | CCOC(=O)CCN(CCc1ccc(OCCc2ccccc2)cc1)C1CCN(C(C)=O)CC1 [Example 90, 3-{(1-Acetyl-piperidin-4-yl)-[2-(4-phenethyloxy-phenyl)-ethyl]-amino}-propionic acid ethyl ester]
